Experimental data published in patent US7994202B2, “Bicyclic nitrogen-containing heterocyclic compounds” (Asahi Kasei Pharma Corporation, priority 2008, dated 2011).

System: female SD rat
Test: Micturition interval prolongation in an anesthetized rat - II (0.2% acetic acid infusion to bladder)
Format: in vivo
Conditions: urethane-anesthetized female SD rat, 0.2% acetic acid bladder infusion, administered to the left femoral vein
Description: Activity of prolonging micturition interval in an anesthetized rat was determined with reference to the method established by Maggi, et al. (Eur. J. Pharmacol. 145, p. 105-112 (1988)). Specifically, a female SD rat was anesthetized with urethane and fixed in a supine position, and a catheter was inserted through an external urethral opening. Using a three-way stopcock, it was connected to a pressure transducer and a syringe pump. While infusing physiological saline including 0.2% acetic acid to the bladder at constant rate, cystometrogram was recorded. After confirming stabilized micturition interval, micturition threshold pressure and maximal voiding pressure, a solvent or the compound to be tested was administered to the left femoral vein and an activity of prolonging micturition interval was determined as an efficacy of the drug compound. Each group included five animals.

O=C(O)c1csc(-n2nc(-c3ccccc3)c3ccccc32)n1 [Exp.2, 2-(3-Phenyl-1H-indazol-1-yl)thiazole-4-carboxylic acid]
Voiding interval-extending action: 30.0%
